Measurements taken from paper PMC8283790, “Inhibitory Effect of Puroindoline Peptides on Campylobacter jejuni Growth and Biofilm Formation” (Frontiers in Microbiology, 2021).
Converted amounts (≈) assume the structure as drawn. Where two headings read alike, the source gives them in different places. Where a SMILES comes first, the peptide text is derived from it.

Columns and labels:
E. coli O157:H7 = type: cell-based, Escherichia coli; settings: CLSI broth microdilution, MH broth, 37°C aerobic, 24 h, OD595
Experimental: (§1) C. jejuni clinical strains 81-176 and F38011 were cultured every 24 to 48 h on Mueller-Hinton (MH) agar containing 5% citrated bovine blood (MH-blood agar) or in MH broth in a shaking orbital incubator with microaerobic conditions (5% O2, 10% CO2, 85% N2) at 37°C. The generic isolates of E. coli O157:H7, L. monocytogenes, and Salmonella enterica serovar Typhimurium (S. Typhimurium) were cultured on LB agar plates in an aerobic chamber at 37°C, and methicillin-resistant S. aureus (MRSA) were cultured on an MH-blood agar plate in an aerobic chamber at 37°C.
(§2) Two-fold serial dilutions were made. The bacterial cultures were grown overnight in MH broth under the appropriate conditions, pelleted by centrifugation, and suspended in MH broth at 5 × 10^6 CFU/mL. Ten microliters of bacterial suspension (∼5 × 10^4 bacteria) was used to inoculate every well except the media control wells in 96-well microtiter plate. The plate was incubated in an orbital shaker at 37°C in a microaerobic condition for 48 h for C. jejuni strains or in aerobic conditions for 24 h for other bacteria. After incubation, the optical density was determined using a 96-well plate reader (BioTek Instruments Inc., Winooski, VT, United States) at 595 nm (OD595). […] The dose-response curves were created by log-transforming the OD595 readings. […]

S. Typhimurium = type: cell-based, Salmonella enterica serovar Typhimurium; settings: CLSI broth microdilution, MH broth, 37°C aerobic, 24 h, OD595
Experimental: as §1, §2

MRSA = type: cell-based, Staphylococcus aureus; settings: CLSI broth microdilution, MH broth, 37°C aerobic, 24 h, OD595
Experimental: as §1, §2

C. jejuni strain 81-176 [1] = settings: C. jejuni 81-176, 48 h; for MIC: CLSI broth microdilution, MH broth, ~5 × 10^4 bacteria/well, 37°C microaerobic, OD595
L. monocytogenes = type: cell-based, Listeria monocytogenes; settings: CLSI broth microdilution, MH broth, 37°C aerobic, 24 h, OD595
Experimental: as §1, §2

[2] = test system: sheep red blood cells (SRBCs); assay: Hemolysis assay; type: cell-based; settings: ~10^8 cells/mL, 60 min, 37°C, absorbance 540 nm; 100% = 1% Triton X-100
Experimental: The potential toxicity of the peptides was determined using a hemolysis assay. Briefly, SRBCs (Hardy Diagnostics, Santa Monica, CA, United States) were washed three times with 1× PBS. Aliquots containing approximately 10^8 cells/mL were incubated with different concentrations of the peptides for 60 min at 37°C in a 96-well tray. The plates were then centrifuged, and the absorbance of each supernatant was measured at 540 nm. Zero hemolysis (blank) and 100% hemolysis were determined in phosphate buffer and 1% Triton X-100, respectively.

C. jejuni strain F38011 = assay: microbe, parasite or virus in culture; type: cell-based, Campylobacter jejuni; settings: for MIC: CLSI broth microdilution, MH broth, ~5 × 10^4 bacteria/well, 37°C microaerobic
red blood cells = settings: ref Capparelli et al. (2007); cited from earlier work
Description: (§3) The cytotoxicity and hemolytic activity of PinA has been addressed in this study using human epithelial INT 407 cells and SRBCs. INT 407 cells were chosen for this study as these cells grow rapidly and easy to maintain in culture media. INT 407 cells have been used extensively in C. jejuni research for several decades ([Negretti et al., 2019]). […] The first report on the cytotoxicity of puroindolines was from [Jing et al. (2003)], where th ...

blood = blood hemolysis assay; ref Jing et al. (2003); cited from earlier work
Description: as §3

INT 407 cells [3] = assay: MTT cell viability assay; type: cell-based, human; settings: for Concentration reducing cell viability (MTT, OD570): INT 407 cells, 24 h
Experimental: (§4) The toxicity of the puroindoline peptides was assessed using INT 407 epithelial cells (ATCC CCL-6) and SRBCs, as described below. The INT 407 cells (a derivative of HeLa cells) were cultured in Minimal Essential Medium (MEM) (Gibco, Grand Island, NY, United States) supplemented with 10% fetal bovine serum (FBS) and 1 mM sodium pyruvate at 37°C in humidified condition (5% CO2).
The viability of INT 407 cells was assessed by MTT assay according to the manufacturer’s recommendations (Roche Diagnostics, Mannheim, Germany). Briefly, INT 407 cells were seeded into a 96-well plate at a density of 2.5 × 10^4 cells/well in 200 μL of growth media (MEM supplemented by 10% FBS) and incubated for 24 h at 37°C under humidified conditions. Cells were rinsed twice with MEM without FBS, and different concentrations of peptides were added into the well. Triton X-100 was added as a positive control and growth medium only was added as a negative control. After treatment, the cells were incubated for different time points (3, 6, or 24 h) at 37°C in a humidified condition. At the end of each experiment, 100 μL of culture medium was removed into a new 96-well plate, and 25 μL of MTT stock solution was added into each well. The plates were incubated for 4 h at 37°C. Then, 100 μL of the solubilizing solution was added to each well, and the plate was incubated overnight at 37°C. After cooling, the plates were read at 570 nm (OD570) on a BioTek 96-well plate reader.

INT 407 cells [4] = assay: Lactate dehydrogenase (LDH) cytotoxicity assay; type: cell-based, human
Experimental: as §4
The cytotoxicity of puroindoline peptides on INT 407 cells was monitored using the lactate dehydrogenase (LDH) activity assay kit (Millipore Sigma, Danvers, MA, United States) following the manufacturer’s guidelines. LDH is released from damaged cells into the medium. Briefly, INT 407 cells were seeded into a 96 well plate at a density of 2.5 × 10^4 cells/well in 200 μL growth media (MEM supplemented by 10% FBS) and incubated for 24 h at 37°C in humidified (5% CO2) conditions. The next day, cells were rinsed twice with MEM without FBS, and different concentrations of peptides were added. Cells were incubated for 3 h, 6 h or 24 h at 37°C. As a positive control, 0.1% Triton X-100 was used. Media only was used as a negative control. In the presence of Triton X-100, cells release maximum LDH. After the appropriate incubation point, the tissue culture plate was centrifuged at 2000 rpm for 5 min. […] Absorbance was recorded at 450 nm (OD450) on a BioTek 96-well plate reader.

[5] = Solubility of the synthetic peptides; type: physicochemical; settings: DMSO and water
C. jejuni strain 81-176 [6] = assay: microbe, parasite or virus in culture
C. jejuni 81-176 biofilm = assay: Biofilm formation, crystal violet staining; type: cell-based, Campylobacter jejuni; settings: inoculum OD540 0.1, 72 h, 37°C microaerobic, no agitation

Row | Molecule | MIC (E. coli O157:H7) [µg/mL] | MIC (S. Typhimurium) [µg/mL] | MIC (MRSA) [µg/mL] | MIC (C. jejuni strain 81-176 [1]) [µg/mL] | MIC (L. monocytogenes) [µg/mL] | Concentration showing hemolysis of SRBCs [2] [µg/mL] | MIC (C. jejuni strain F38011; 48 h, OD595) [µg/mL] | Concentration up to which no hemolytic activity was displayed (red blood cells) [µg/mL] | Concentration up to which no hemolytic activity was identified (blood) [µg/mL] | Concentration reducing cell viability (MTT, OD570) (INT 407 cells [3]) [µg/mL] | further results
1 | CSCC[C@H](NC(=O)[C@@H](N)[C@@H](C)O)C(=O)N[C@@H](CCCCN)C(=O)N[C@@H](CC(=O)O)C(=O)N[C@@H](Cc1ccccc1)C(=O)N1CCC[C@H]1C(=O)N[C@H](C(=O)N[C@H](C(=O)N[C@@H](Cc1c[nH]c2ccccc12)C(=O)N[C@@H](CCCNC(=N)N)C(=O)N[C@@H](Cc1c[nH]c2ccccc12)C(=O)NCC(=O)N[C@@H](CCCCN)C(=O)N[C@@H](Cc1c[nH]c2ccccc12)C(=O)NCC(=O)N[C@@H](CCCCN)C(=O)NCC(=O)NCC(=O)O)[C@@H](C)O)C(C)C [PinA mutant] (H-TMKDFPVTWRWGKWGKGG-OH) | >512 | >512 | >512 | >512 | >512 | ≥ 256 | >512 |  |  |  | 
2 | CSCC[C@H](NC(=O)[C@@H](N)[C@@H](C)O)C(=O)N[C@@H](CCCCN)C(=O)N[C@@H](CC(=O)O)C(=O)N[C@@H](Cc1ccccc1)C(=O)N1CCC[C@H]1C(=O)N[C@H](C(=O)N[C@H](C(=O)N[C@@H](Cc1c[nH]c2ccccc12)C(=O)N[C@@H](CCCNC(=N)N)C(=O)N[C@@H](Cc1c[nH]c2ccccc12)C(=O)N[C@@H](Cc1c[nH]c2ccccc12)C(=O)N[C@@H](CCCCN)C(=O)N[C@@H](Cc1c[nH]c2ccccc12)C(=O)N[C@@H](Cc1c[nH]c2ccccc12)C(=O)N[C@@H](CCCCN)C(=O)NCC(=O)NCC(=O)O)[C@@H](C)O)C(C)C [PinA] (H-TMKDFPVTWRWWKWWKGG-OH) |  |  |  |  |  | ≥ 256 |  | 150 | 1000 | 256 | Cytotoxicity (LDH release), in words (INT 407 cells [4]; INT 407 cells, 3, 6 and 24 h, MEM without FBS, Triton X-100 at 0.1%): cytotoxic to INT 407 cells at higher concentrations
3 | CSCC[C@H](NC(=O)[C@@H](N)[C@@H](C)O)C(=O)N[C@@H](CCCCN)C(=O)N[C@@H](CC(=O)O)C(=O)N[C@@H](Cc1ccccc1)C(=O)N1CCC[C@H]1C(=O)N[C@H](C(=O)N[C@H](C(=O)N[C@@H](Cc1c[nH]c2ccccc12)C(=O)N1CCC[C@H]1C(=O)N[C@H](C(=O)NCC(=O)N[C@@H](Cc1c[nH]c2ccccc12)C(=O)N[C@@H](Cc1c[nH]c2ccccc12)C(=O)NCC(=O)NCC(=O)NCC(=O)O)[C@@H](C)O)[C@@H](C)O)C(C)C [PinB mutant] (H-TMKDFPVTWPTGWWGGG-OH) | >512 | >512 | >512 | >512 | >512 | ≥ 256 | >512 |  |  |  | 
4 | CSCC[C@H](NC(=O)[C@@H](N)[C@@H](C)O)C(=O)N[C@@H](CCCCN)C(=O)N[C@@H](CC(=O)O)C(=O)N[C@@H](Cc1ccccc1)C(=O)N1CCC[C@H]1C(=O)N[C@H](C(=O)N[C@H](C(=O)N[C@@H](Cc1c[nH]c2ccccc12)C(=O)N1CCC[C@H]1C(=O)N[C@H](C(=O)N[C@@H](CCCCN)C(=O)N[C@@H](Cc1c[nH]c2ccccc12)C(=O)N[C@@H](Cc1c[nH]c2ccccc12)C(=O)N[C@@H](CCCCN)C(=O)NCC(=O)NCC(=O)O)[C@@H](C)O)[C@@H](C)O)C(C)C [PinB] (H-TMKDFPVTWPTKWWKGG-OH) |  |  |  |  |  | ≥ 256 |  | 50 | 1000 | > 512 | Concentration showing cytotoxicity (LDH release) (INT 407 cells [4]; INT 407 cells, any time point (3, 6, 24 h)): > 512 µg/mL; Solubility (in words) [5]: soluble in DMSO, an organic solvent, but not in water
5 | CC[C@H]1OC(=O)[C@H](C)[C@@H](O[C@H]2C[C@@](C)(OC)[C@@H](O)[C@H](C)O2)[C@H](C)[C@@H](O[C@@H]2O[C@H](C)C[C@H](N(C)C)[C@H]2O)[C@](C)(O)C[C@@H](C)C(=O)[C@H](C)[C@@H](O)[C@]1(C)O [erythromycin] |  |  |  |  |  |  |  |  |  |  | MBC (C. jejuni strain 81-176 [6]; Campylobacter jejuni, 81176): 0.125 µg/mL (≈ 0.17 µM); MIC (C. jejuni strain 81-176 [6]; Campylobacter jejuni, 81176, 48 h): 0.125 µg/mL (≈ 0.17 µM); IC50 (C. jejuni strain 81-176 [6]; Campylobacter jejuni, 81176, 48 h, read-out: IC50 (concentration at which 50% of bacteria is inhibited)): 0.0415 µg/mL (≈ 0.0565 µM); IC90 (C. jejuni strain 81-176 [6]; Campylobacter jejuni, 81176, 48 h, read-out: IC90 (90% of maximal inhibitory concentration)): 0.0677 µg/mL (≈ 0.0922 µM); Concentration inhibiting biofilm formation (C. jejuni 81-176 biofilm): ≥ 0.25 µg/mL; IC10 (10% of maximal inhibitory concentration) (C. jejuni strain 81-176 [1]; from slope of concentration-effect curve): 0.0254 µg/mL; MIC (C. jejuni strain F38011; Campylobacter jejuni, 48 h, OD595, read-out: MIC): 0.188 µg/mL (≈ 0.255 µM); IC50 (C. jejuni strain F38011; Campylobacter jejuni, read-out: IC50 (concentration at which 50% of bacteria is inhibited), broth microdilution, 48 h, ten concentration points, min. three biological replicates): 0.0405 µg/mL (≈ 0.0552 µM); IC90 (C. jejuni strain F38011; Campylobacter jejuni, read-out: IC90 (90% of maximal inhibitory concentration), from slope of concentration-effect curve, 48 h): 0.0657 µg/mL (≈ 0.0895 µM); MBC (C. jejuni strain F38011; Campylobacter jejuni, wells spotted on MH agar, 24–48 h, no growth (>99.9% reduction)): 0.25 µg/mL (≈ 0.341 µM); IC10 (10% of maximal inhibitory concentration) (C. jejuni strain F38011; from slope of concentration-effect curve, 48 h): 0.0249 µg/mL
6 | Triton X-100 [reference compound] |  |  |  |  |  |  |  |  |  |  | Cell viability (MTT, OD570), in words (INT 407 cells [3]): very low absorbance at OD570
